Experimental data taken from patent US11883525B2, “Bioerodible polyester polymer axitinib ocular implants and related methods of use” (Dose Medical Corporation, priority 2019, dated 2024).

System: persistent retinal vascular leakage
Test: DL-AAA model of persistent retinal vascular leakage, fluorescein angiography
Assay type: in vivo, DB rabbits
Conditions: 2-mg injection

Question: How did the “duration of effect on leakage” value turn out when “Eylea® (aflibercept): commercial aflibercept product, macromolecular ligand for VEGF, used to validate the model” was run?
Answer: approximately two
